Results from patent US20240325319A1, “INHIBITORS OF AMYLOID BETA OLIGOMERIZATION AND THERAPEUTIC USES THEREOF” (Northwestern University, priority 2021, published 2024).
Values joined by “and” are separate entries in the source; they are usually repeats but may differ in a detail not shown here. Equal values may be shown once. “Also recorded” adds a separate entry of the source.

Experiments:
AβOs bound to neurons [1] = test: AβOs bound to dendrites of hippocampal neurons treated with Aβ42 monomer (immunofluorescence, NU2/NU4); format: cell-based, rat
Experimental: Neurons were pre-treated with 3 μM NU-9 for 30 min, then treated with Aβ42 monomer for 24 hr. Cells were fixed with 3.7% formaldehyde and stained for AβOs (NU4, green), tau phosphorylated at Ser396 (pSer396, red) and mounted on slides before imaging.
Cells were fixed with 3.7% formaldehyde and stained for AβOs (NU4, green), tau phosphorylated at Thr205 (pThr205, red), and nuclei (DAPI, blue) and mounted on slides before imaging.
FIG. 3. Neurons were pre-treated with 3 μM NU-9 for 30 min, then treated with Aβ42 monomer for 30 min. Cells were fixed with 3.7% formaldehyde and stained for AβOs (NU2, green), β-II tubulin (TUBB3, red), and nuclei (DAPI, blue) and mounted on slides before imaging.
FIG. 4. E18 hippocampal neurons were cultured until 21 div and pre-treated with 3, 15, or 30 μM NU-9 for 30 minutes, followed by treatment with 500 nM Aβ42 for 30 minutes. Cells were fixed with 3.7% formaldehyde and stained for AβOs (NU2, green), […] (red) and nuclei (DAPI, blue), and mounted on slides before imaging at 63×.
NU-9 reduces the number of amyloid beta oligomers bound to neurites. Primary rat hippocampal neurons in cell culture were pre-treated with NU-9 for 30 minutes and then treated with amyloid beta 1-42 (Aβ) monomer. […] To characterize the dose-response effect of NU-9 on AβO formation, cells were pretreated with increasing doses of NU-9 (3, 15, and 30 μM), and then treated with Aβ for 30 minutes.
The decrease was 81% (p=0.0005). We further characterized the effect of NU-9, to narrow down potential candidate mechanisms for this effect.

Aβ42 = target: T1, Aβ42 (Homo sapiens, UniProt P05067); test: AβO formation from Aβ monomer in the absence of cells (dot blot, coverslips, fresh or conditioned media); format: biochemical
T1 construct: then treated with amyloid beta 1-42 (Aβ) monomer
Experimental: FIG. 5. A) NU-9 and Aβ were combined in F12 media, in the absence of cells, and incubated at 37° C. B) The concentration of AβOs was probed with NU2 antibody via dot blot after 24 hours in the conditions containing 3 μM NU-9 with or without Aβ.
FIG. 6. In dishes without cells, but in conditions that mimicked cell culture, 3 μM NU-9 and 500 nM Aβ42 for 30 minutes fixed with 3.7% formaldehyde and stained for AβOs (NU2, green) and mounted on slides before imaging at 63×.
FIG. 9. The effect of NU-9 requires the presence of cells. Conditioned media was collected from mature hippocampal neuron. DMSO control (Control), Aβ monomer (Aβ), or NU-9 and then Aβ (NU-9+Aβ in cond. media) were added, then concentration of AβOs were analyzed by dot blot. Conditioned media was also collected from neurons treated with NU-9, then Aβ was added to this (Media from NU-9 in cells+Aβ). […] Standard curve was created in media using 0-1000 fmol AβOs. The dot blot was labelled with NU2 (anti-AβO).
FIG. 10. […] (Conditioned Media) A dot blot probed with NU2 was used to measure AβO abundance in solutions of conditioned media to which DMSO vehicle (control), Aβ, and NU-9 followed by Aβ were added for 30 min each. The bottom row corresponds to samples in which cells were treated with NU-9 for 30 min, then extracellular media was removed, and Aβ was added to the media for 30 min. The standard curve at the top was made from 0-1000 fmol preformed AβOs. (Fresh Media) A dot blot probed with NU2 was used to measure AβO abundance in solutions of culture media to which DMSO vehicle (control), Aβ, and NU-9 (3-300 μM) followed by Aβ were added for 30 min each. Each of these solutions was prepared in triplicate. The standard curve at the top was made from 0-1000 fmol preformed AβOs.
In the absence of cells, NU-9 has no effect on AβO formation. […] Next, a follow-up experiment was conducted using conditions that more closely mimicked those of cell culture. Coverslips were coated, as usual for cell culture, with poly-D-lysine, and then placed into culture dishes with media. No cells were added. Then 3 μM NU-9 and 500 nM AβOs were added for 30 min. In this assay, the previous result was replicated.
Instead, NU-9 exerts an effect at the cell membrane or intracellularly.

total Aβ species = test: Total Aβ species in neuronal cultures (6E10 immunofluorescence); format: cell-based, rat; conditions: NU-9 3 μM, 30 min, then Aβ monomer 500 nM
Experimental: FIG. 12. […] Mature hippocampal neurons were treated with NU-9 (3 μM, 30 min), then with Aβ monomer (500 nM, 30 min). These were labelled with 6E10 (anti-total Aβ, green) and MAP2 (anti-dendrite). Total number of Aβ particles per images as well as fluorescence intensity of Aβ signal (IntDen) was quantified).
To follow up on this, we treated neurons with NU-9 (3 μM, 30 min) followed by Aβ monomer (500 nM, 30 min) and attempted to observe total Aβ species by dot blot. […] So, instead of using dot blot, we used immunofluorescence, labelling treated neurons for total Aβ species. Using this protocol, we were able to avoid interaction of the antibody with cell culture media, allowing for specific labelling.

acidic lysosomes = test: Lysotracker labelling of acidic compartments in hippocampal neurons; format: cell-based, rat; conditions: 3 μM NU-9, 30-minute treatment
Experimental: FIG. 24. Mature E18 hippocampal neurons were treated 3 μM NU-9, and subsequently labelled with lysotracker. A) total immunofluorescence (integrated density), B) mean intensity, C) average size of acidic compartments, D) number of acidic compartments.

cathepsin L = cathepsin L (Homo sapiens, UniProt P07711); test: Purified cathepsin L enzyme activity (Z-FR-AMC to 7-AMC); format: biochemical; conditions: 0.0003-150 μM NU-9
Experimental: FIG. 26. A) 0.0003-150 μM NU-9 was combined with purified cathepsin L enzyme in the presence of the cathepsin L substrate Z-FR-AMC. Cathepsin L enzyme activity was measured by the rate of 7-AMC production by fluorescence. Percent change in rate was quantified in the graph. […] B) Mature hippocampal neurons were treated with NU-9 for 30 minutes, then Magic Red was used to monitor intracellular cathepsin L activity. Cells were treated in 3 wells, and 9-22 images were analyzed per condition.
No effect of 0.0003-150 μM NU-9 was observed on the cathepsin L activity as measured by the production rate of 7-AMC from Z-FR-AMC by purified cathepsin L enzyme.

AβOs bound to neurons [2] = test: AβOs bound to dendrites of hippocampal neurons treated with Aβ42 monomer (immunofluorescence, NU2/NU4); format: cell-based, rat; remark: listed apart in the source

T1 sequence (P05067 672-713): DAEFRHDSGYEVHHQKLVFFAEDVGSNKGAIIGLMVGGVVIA
Chain of cathepsin L (P07711 114-333, species assumed): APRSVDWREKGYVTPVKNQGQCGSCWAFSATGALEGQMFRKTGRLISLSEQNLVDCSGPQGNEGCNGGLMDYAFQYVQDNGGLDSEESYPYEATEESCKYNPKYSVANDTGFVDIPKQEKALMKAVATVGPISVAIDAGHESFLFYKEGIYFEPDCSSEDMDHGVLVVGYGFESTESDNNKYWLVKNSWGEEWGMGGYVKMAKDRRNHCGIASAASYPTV

## C[C@H](Oc1cc(C(F)(F)F)cc(C(F)(F)F)c1)C1CC(=O)CC(=O)C1 [NU-9, (S)-5-(1-(3,5-bis(trifluoromethyl)phenoxy)ethyl)cyclohexane-1,3-dione]
AβOs bound to neurons [1]; 3 μM NU-9 pre-treatment 30 min, then Aβ42 monomer 24-26 hr
  number of AβOs bound at dendrites: significantly decreased the number of AβOs bound at dendrites; also recorded: able to reduce AβO binding in neurons treated with Aβ monomer
AβOs bound to neurons [1]; 3 μM NU-9 pre-treatment 30 min, then Aβ monomer 500 nM, 30 min
  AβOs bound to neurons / formation of neuron-binding AβOs: mitigated the formation of neuron-binding AβOs; also recorded: significantly reduced AβOs bound to neurons; also recorded: significantly reduced the formation of neuron binding AβOs
AβOs bound to neurons [1]; 3, 15, or 30 μM NU-9 30 min, then 500 nM Aβ42 30 min
  dose-response of AβO suppression (visual analysis of images): reduced more extensively at higher doses of NU-9; also recorded: More extensive suppression of AβOs was observed at higher concentrations of NU-9
AβOs bound to neurons [1]; NU-9 3 μM, 30 min prior to Aβ monomer 500 nM, 30 min or 24 h
  reduction in AβOs at synapses compared to treatment with Aβ monomer alone: 81% and 55-80%
AβOs bound to neurons [1]; NU-9 30 min pre-treatment, Aβ monomer 30 min or 24 h
  number of AβOs bound to neurons: reduces the number of bound amyloid beta oligomers; also recorded: dramatically decreased the number of Aβ oligomers (AβOs) bound to neurons; also recorded: marked reduction in AβOs at synapses; also recorded: effectively reduced the number of pathological species of AβOs
Aβ42; 3 μM NU-9 and Aβ in F12 media, 37° C., 24 hours
  AβO concentration by NU2 dot blot, no cells: no change in AβO formation was observed; also recorded: No significant difference was observed
Aβ42; NU-9 3 μM, 30 min added to media, Aβ monomer 500 nM, 30 min
  AβOs formed from Aβ monomer in conditioned media of untreated cells: did not reduce the number of AβOs formed from Aβ monomer; also recorded: Aβ was not reduce in any treatment condition
Aβ42; NU-9 3-300 μM followed by Aβ, 30 min each
  AβO formation from Aβ monomer in fresh media (dot blot): did not reduce ABO formation directly; also recorded: does not reduce AβO formation from Aβ monomer in cell-free solution
Aβ42; cells treated 3 μM NU-9 30 min, media removed, Aβ added 30 min
  AβOs formed from Aβ monomer in conditioned media from cells treated with NU-9: also did not reduce the number of AβOs formed from Aβ monomer in the absence of cells
Aβ42; poly-D-lysine coverslips in media, 3 μM NU-9 and 500 nM Aβ42, 30 min
  number of AβOs bound to coverslips, no cells: did not affect AβO formation; also recorded: did not significantly affect the number of AβOs bound to coverslips
Total Aβ species
  total Aβ species (particles, IntDen): does not reduce total Aβ species observable in neuronal cultures
Acidic lysosomes
  lysosome number, size, and acidity: unchanged
Cathepsin L
  cathepsin L activity (production rate of 7-AMC from Z-FR-AMC): No effect
AβOs bound to neurons [2]; 100 nM bafilomycin A 30 min, NU-9 3 μM 30 min, Aβ monomer 500 nM 30 min
  effect of NU-9 on neuron-binding AβOs in the presence of lysosome inhibitor: unable to do so; also recorded: abolished in the presence of a lysosome acidification inhibitor
AβOs bound to neurons [2]; NU-9 pre-treatment, washout, then Aβ 500 nM, 30 min
  AβOs bound to dendrites when NU-9 is washed out prior to Aβ monomer: leads to a reduction in AβOs bound to dendrites; also recorded: maintained even when NU-9 was washed out; also recorded: reduced the number of AβOs bound to dendrites; also recorded: remains effective even when it is washed out
